Assays:
[1] = system: guinea pig cardiomyocytes; experiment: Glucagon co-administration with PDE1 inhibitor in guinea pig cardiomyocytes (sarcomere shortening, Ca2+ transients); assay type: cell-based; details: glucagon (1 μM) plus Compound 1 (1 μM) vs glucagon alone, 37° C., pacing at 1 Hz
Experimental: Studies were carried out to test the effect of glucagon co-administration with a PDE1 inhibitor in guinea pig cardiomyocytes. Myocytes were isolated according to Liu et al., Circulation Research, 2014. A thoracotomy was performed on anesthetized guinea pigs to remove the heart. The aorta was cannulated on a Langendorf apparatus fitted with a heating jacket circulating water at 37° C., and were retrogradely perfused for 5 minutes at 8 ml/min. The perfusate was switched to a Tyrode's solution containing […] (Worthington) and protease type 14 (Sigma-Aldrich) for 7-9 minutes. The solution was switched to a modified Kraft-Bruhe (KB) buffer for 5 minutes, before being minced and filtered to yield single cells. Isolated cells were incubated in a modified KB buffer (Isenberg et al., Pflugers Arch, 1982] for an hour, before being placed in supplemented M199 ACCIT medium. (Ellingsen et al., American J Physiology, 1993) Cells were kept at room temperature, and used within 7 hours.
Changes in cell sarcomere shortening and Ca^2+ transients were measured using a customized IonOptix system previously described. (Hashimoto et al., Circulation, 2018). Briefly, cells were loaded using 1 μM Fura-2 for 15 minutes, and washed out for at least 20 minutes. Baseline recording was made in Tyrode's buffer described above, with 0.1% DMSO. […]

hPDE1A = hPDE1A (Homo sapiens, UniProt P54750); experiment: IMAP PDE assay, selectivity table; assay type: biochemical
Sequence of hPDE1A (P54750 whole entry): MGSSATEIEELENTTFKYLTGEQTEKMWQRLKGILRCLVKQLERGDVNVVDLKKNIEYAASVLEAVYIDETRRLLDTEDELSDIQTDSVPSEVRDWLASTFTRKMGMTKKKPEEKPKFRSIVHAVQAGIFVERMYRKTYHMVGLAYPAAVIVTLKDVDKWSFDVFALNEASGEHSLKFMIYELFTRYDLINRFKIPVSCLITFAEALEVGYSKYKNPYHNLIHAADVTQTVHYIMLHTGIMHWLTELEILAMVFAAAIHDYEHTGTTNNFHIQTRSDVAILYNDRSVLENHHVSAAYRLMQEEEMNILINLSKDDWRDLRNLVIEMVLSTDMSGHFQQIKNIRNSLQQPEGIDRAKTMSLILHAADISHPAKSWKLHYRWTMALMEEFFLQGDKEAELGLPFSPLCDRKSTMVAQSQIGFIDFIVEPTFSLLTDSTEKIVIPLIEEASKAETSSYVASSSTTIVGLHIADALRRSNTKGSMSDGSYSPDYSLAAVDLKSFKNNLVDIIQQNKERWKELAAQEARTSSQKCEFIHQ

hPDE1C = hPDE1C (Homo sapiens, UniProt Q14123); experiment: IMAP PDE assay, selectivity table; assay type: biochemical
Sequence of hPDE1C (Q14123 whole entry): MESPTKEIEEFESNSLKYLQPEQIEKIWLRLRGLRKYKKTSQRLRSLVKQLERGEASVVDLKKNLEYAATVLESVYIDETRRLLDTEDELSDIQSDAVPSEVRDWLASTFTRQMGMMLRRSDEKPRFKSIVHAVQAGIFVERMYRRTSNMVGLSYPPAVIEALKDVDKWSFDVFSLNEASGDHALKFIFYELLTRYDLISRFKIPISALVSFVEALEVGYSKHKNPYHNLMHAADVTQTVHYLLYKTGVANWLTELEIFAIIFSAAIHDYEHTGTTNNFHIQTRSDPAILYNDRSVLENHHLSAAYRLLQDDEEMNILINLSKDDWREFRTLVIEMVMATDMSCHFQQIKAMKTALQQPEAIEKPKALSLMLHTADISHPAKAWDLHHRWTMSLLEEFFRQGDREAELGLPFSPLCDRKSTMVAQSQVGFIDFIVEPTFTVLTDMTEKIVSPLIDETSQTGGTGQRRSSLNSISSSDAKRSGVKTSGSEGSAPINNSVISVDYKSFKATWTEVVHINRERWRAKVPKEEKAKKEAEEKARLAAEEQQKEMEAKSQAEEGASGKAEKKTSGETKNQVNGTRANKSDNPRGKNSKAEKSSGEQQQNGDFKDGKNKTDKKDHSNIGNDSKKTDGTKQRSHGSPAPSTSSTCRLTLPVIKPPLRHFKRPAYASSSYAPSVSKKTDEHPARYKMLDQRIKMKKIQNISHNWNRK

- IC50 (hPDE1A): 0.027 nM
- IC50 (hPDE1C): 0.037 nM
SMILES: CN1C(=O)c2c(nn(Cc3ccc(-c4cccc(F)n4)cc3)c2Nc2ccccc2)N2C1=N[C@@H]1CCC[C@@H]12 [Compound 1]
- change in cell sarcomere shortening ([1]; FIG. 1): increased the beneficial effects of glucagon
- peak Ca2+ transient amplitude ([1]; FIG. 2): increased the beneficial effects of glucagon
